In US20230286973A1, “PROTEIN SECRETION INHIBITORS” (KEZAR LIFE SCIENCES, priority 2020, published 2023):
Like-named read-outs stand apart in the source and are kept apart here.

Experiments:
[1] = tested on: HER3-ss+4aa/Gaussia Luciferase; experiment: Dox-Induced Her3-ss-Gluc Assay; assay type: cell-based; settings: 24 hr Dox induction, 293FRT/TO cells, read-out: 24 hr Dox Inducible Her3(ss + 4)Gluc 293FRT/TO: Mean IC50
How it was run: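 Cells were seeded a day ahead, then given compound diluted in DMSO/media with doxycycline to induce expression of the HER3 signal sequence (+4 aa)–Gaussia luciferase fusion. Incubation was at 37° C., 5% CO2, in a stable Flp-In 293 T-REx line.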

[2] = tested on: TNFα-FL/Gaussia Luciferase; experiment: Dox Induced TNFα-FL-Gluc Assay; assay type: cell-based; settings: for IC50: 24 hr Dox induction, 293FRT/TO cells, read-out: 24 hr Dox Inducible TNFaFLGluc 293FRT/TO: Mean IC50; for 24 hr Dox Inducible TNFaFLGluc 293FRT/TO: TNF/PD1: ratio of TNFaFLGluc IC50 to PD1ssGluc IC50
How it was run: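 Stereoisomer mixtures were tested where stereochemistry is not drawn. Induction used doxycycline added together with compound dilutions in DMSO/media to Flp-In 293 T-REx cells carrying a T-REx-regulated TNFα (aa 1-233)-Gaussia luciferase construct, then incubated at 37 °C, 5% CO2.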

[3] = tested on: multiple myeloma cell line NCI-H929; experiment: H929 Cell Viability Assay; assay type: cell-based, human; settings: Homo sapiens, NCI-H929, 48 h, NCI-H929 cells, Celltiter-Glo
How it was run: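 Luminescent ATP detection (CellTiter-Glo) after 48 hours of compound exposure measures viability. Cells were plated in RPMI 1640 containing 10% fetal bovine serum and kept at 37° C under 5% CO2.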

[4] = tested on: IL-2-FL/Gaussia Luciferase; experiment: Dox Induced IL2-FL-Gluc Assay; assay type: cell-based; settings: for IC50: 24 hr Dox induction, 293FRT/TO cells, read-out: 24 hr Dox Inducible IL2FLGluc 293FRT/TO: Mean IC50; for 24 hr Dox Inducible IL2FLGluc 293FRT/TO: IL2/PD1: ratio of IL2FLGluc IC50 to PD1ssGluc IC50
How it was run: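 Cells are plated one day ahead, then receive compound dilutions in DMSO/media with doxycycline and incubate at 37° C, 5% CO2. They are Flp-In 293 T-REx cells expressing a full-length IL-2 (amino acids 1-153)–Gaussia luciferase fusion under T-REx control.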

[5] = Liver Microsome Stability Assay (rat); settings: rat liver microsomes, with NADPH, 1.0 uM compound
Protocol: (§1) Stability of a compound was assessed in the presence of liver microsomes from various sources—mouse, rat, monkey and human liver microsomes. 1.0 uM compound, 0.4% DMSO in 0.1 M Potassium Phosphate with 1.0 mg/mL liver microsomes, were incubated at 37° C. with or without 1 mM NADPH. The samples were quenched at 0, and 30 minutes.

[6] = tested on: PD1-ss+10aa/Gaussia Luciferase; experiment: Dox-Induced PD1-ss-Gluc Assay; assay type: cell-based; settings: 24 hr Dox induction, 293FRT/TO cells, read-out: 24 hr Dox Inducible PD1ssGluc 293FRT/TO: Mean IC50
How it was run: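 Stable Flp-In 293 T-REx cells carried a doxycycline-inducible construct of Gaussia luciferase fused to the PD1 signal sequence plus 10 amino acids. Cells were plated the day before, then treated with compound dilutions in DMSO/media containing doxycycline at 37 °C, 5% CO2.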

[7] = tested on: multiple myeloma cell line U266B1; experiment: U266 Cell Viability Assay; assay type: cell-based, human; settings: Homo sapiens, U-266, 48 h, U266B1 cells, Celltiter-Glo
How it was run: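 Steps: culture in RPMI 1640 plus 10% FBS and 2 mM glutamine; plate and add compound dilutions; incubate 48 hours at 37° C., 5% CO2; add CellTiter-Glo and quantify luciferase signal.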

[8] = Liver Microsome Stability Assay (human); settings: human liver microsomes, with NADPH, 1.0 uM compound
Protocol: as §1

[9] = Liver Microsome Stability Assay (monkey); settings: monkey liver microsomes, with NADPH, 1.0 uM compound
Protocol: as §1

[10] = Liver Microsome Stability Assay (mouse); settings: mouse liver microsomes, with NADPH, 1.0 uM compound
Protocol: as §1

[11] = '<=>' given where both are I.A.

| SMILES | IC50 [1] [nM] | IC50 [2] [nM] | 24 hr Dox Inducible TNFaFLGluc 293FRT/TO: TNF/PD1 [2] | EC50 [3] [nM] | IC50 [4] [nM] | 24 hr Dox Inducible IL2FLGluc 293FRT/TO: IL2/PD1 [4] | Liver Microsome Stability (Multiple Species): Rat - % Remaining after 30 min w/NADPH [5] [%] | IC50 [6] [nM] | EC50 [7] [nM] | Liver Microsome Stability (Multiple Species): Human - % Remaining after 30 min w/NADPH [8] [%] | Liver Microsome Stability (Multiple Species): Monkey - % Remaining after 30 min w/NADPH [9] [%] | Liver Microsome Stability (Multiple Species): Mouse - % Remaining after 30 min w/NADPH [10] [%] | IC50 ([1]; mean) [nM] | IC50 ([2]; mean) [nM] | 24 hr Dox Inducible TNFaFLGluc 293FRT/TO: TNF/PD1 [2, 11] | IC50 ([4]; mean) [nM] | 24 hr Dox Inducible IL2FLGluc 293FRT/TO: IL2/PD1 [4, 11] | IC50 ([6]; mean) [nM] |
| --- | --- | --- | --- | --- | --- | --- | --- | --- | --- | --- | --- | --- | --- | --- | --- | --- | --- | --- |
| CC(C)n1cnc(/C=C/c2csc(NC(=O)c3cccn3Cc3cccnc3)n2)c1 [Compound B63, (E)-N-(4-(2-(1-isopropyl-1H-imidazol-4-yl)vinyl)thiazol-2-yl)-1-(pyridin-3-ylmethyl)-1H-pyrrole-2-carboxamide] | > 25000 | > 25000 | <=>1.20 | > 25000 | > 25000 | <=>1.2 | 1.14 | > 20900 | > 25000 | 6.56 | 0.09 | 0.49 | – | – | – | – | – | – |
| CC(C)OC(=O)Nc1ccc(N2CCC[C@@H]2c2csc(NC(=O)c3cccn3Cc3ccnc(F)c3)n2)cc1 [Compound A146, isopropyl (R)-(4-(2-(2-(1-((2-fluoropyridin-4-yl)methyl)-1H-pyrrole-2-carboxamido)thiazol-4-yl)pyrrolidin-1-yl)phenyl)carbamate] | 2.47 | 20.6 | 21.1 | 39.3 | 2.56 | 2.6 | 54.1 | 0.97 | > 25000 | 49.5 | 21.6 | 34.8 | – | – | – | – | – | – |
| C[C@H](N)c1ccc(N2CCC[C@@H]2c2csc(NC(=O)c3cccn3Cc3ccnc(F)c3)n2)cc1 [Compound A74, N-(4-((R)-1-(4-((S)-1-aminoethyl)phenyl)pyrrolidin-2-yl)thiazol-2-yl)-1-((2-fluoropyridin-4-yl)methyl)-1H-pyrrole-2-carboxamide] | 232 | 2800 | 23.7 | 3870 | 367 | 3.1 | 98.3 | 118 | 6130 | 38.6 | 38.5 | 94.3 | – | – | – | – | – | – |
| N#CC1CC(Cn2cccc2C(=O)Nc2nc([C@H]3CCCN3c3ccccc3)cs2)C1 (stereo partly drawn) [Compound C106, (R)-1-((3-cyanocyclobutyl)methyl)-N-(4-(1-phenylpyrrolidin-2-yl)thiazol-2-yl)-1H-pyrrole-2-carboxamide] | – | – | – | > 25000 | – | – | 3.54 | – | > 25000 | 19 | 1.96 | 28.8 | 1430 | 19400 | 17.7 | 2640 | 2.4 | 1090 |
| CC(=O)Nc1ccc(N2CCC[C@@H]2c2csc(NC(=O)c3cccn3Cc3ccnc(F)c3)n2)c(F)c1 [Compound A98, (R)-N-(4-(1-(4-acetamido-2-fluorophenyl)pyrrolidin-2-yl)thiazol-2-yl)-1-((2-fluoropyridin-4-yl)methyl)-1H-pyrrole-2-carboxamide] | 2.05 | 20.1 | 22.2 | 22.4 | 2.25 | 2.5 | 1.18 | 0.91 | > 25000 | 2.43 | 0.48 | 1.29 | – | – | – | – | – | – |
| CC(=O)N1CCC(Oc2ccc(N3CCC[C@@H]3c3csc(NC(=O)c4cccn4Cc4ccnc(F)c4)n3)c(Cl)c2)CC1 [Compound A143, (R)-N-(4-(1-(4-((1-acetylpiperidin-4-yl)oxy)-2-chlorophenyl)pyrrolidin-2-yl)thiazol-2-yl)-1-((2-fluoropyridin-4-yl)methyl)-1H-pyrrole-2-carboxamide] | 64.8 | 209 | 4.03 | 1010 | 31.2 | 0.6 | 6.14 | 51.9 | 11900 | 0.16 | 0.01 | 0.06 | – | – | – | – | – | – |
